Experiments:
[1] = Tmax in 8 hrs fasted healthy human plasma at 200 mg, po administered as single dose of suspension; format: ADME, organism-based
[2] = Tmax in high-fat fed healthy human plasma at 200 mg, po administered as single dose of two-100 mg capsules; format: ADME, organism-based
[3] = AUC (0 to last) in 8 hrs fasted healthy human plasma at 200 mg, po administered as single dose of two-100 mg capsules; format: ADME, organism-based; design: dose 200 mg, route oral, time 0 - last
[4] = Half life in 8 hrs fasted healthy human plasma at 200 mg, po administered as single dose of suspension; format: ADME, organism-based
[5] = Half life in high-fat fed healthy human plasma at 200 mg, po administered as single dose of two-100 mg capsules; format: ADME, organism-based
Homo sapiens [6] = assay: Ratio of Cmax in 8 hrs fasted healthy human plasma at 200 mg, po administered as single dose of two-100 mg capsules to cmax in 8 hrs fasted healthy human plasma assessed as EDP-420 9-keto level at 200 mg, po administered as single dose of two-100 mg capsules; format: ADME, organism-based; details: in vivo
Homo sapiens [7] = assay: Ratio of Cmax in high-fat fed healthy human plasma at 200 mg, po administered as single dose of two-100 mg capsules to cmax in high-fat fed healthy human plasma assessed as EDP-420 9-keto level at 200 mg, po administered as single dose of two-100 mg capsules; format: ADME, organism-based; details: in vivo
Homo sapiens [8] = assay: Ratio of AUC (0 to infinity) in 8 hrs fasted healthy human plasma at 200 mg, po administered as single dose of suspension to AUC (0 to infinity) in 8 hrs fasted healthy human plasma assessed as EDP-420 9-keto level at 200 mg, po administered as single dose of suspension; format: ADME, organism-based; details: in vivo
Homo sapiens [9] = assay: Ratio of AUC (0 to infinity)in 8 hrs fasted healthy human plasma at 200 mg, po administered as single dose of two-100 mg capsules to AUC (0 to infinity) in 8 hrs fasted healthy human plasma assessed as EDP-420 9-keto level at 200 mg, po administered as single dose of two-100 mg capsules; format: ADME, organism-based; details: in vivo
Homo sapiens [10] = assay: Ratio of AUC (0 to infinity) in high-fat fed healthy human plasma at 200 mg, po administered as single dose of two-100 mg capsules to AUC (0 to infinity) in high-fat fed healthy human plasma assessed as EDP-420 9-keto level at 200 mg, po administered as single dose of two-100 mg capsules; format: ADME, organism-based; details: in vivo
[11] = AUC (0 to 24 hrs) in Alveolar macrophage of healthy human at 400 mg, po administered as single dose; format: ADME, organism-based; details: alveolar macrophages, read-out: Drug uptake
[12] = Ratio of AUC (0 to 24 hrs) in epithelial lining fluid of healthy human to AUC (0 to 24 hrs) in healthy human plasma at 400 mg, po administered as single dose; format: ADME, organism-based
[13] = Drug concentration in Epithelial lining fluid of healthy human at 400 mg, po administered as single dose after 24 hrs; format: ADME, organism-based; details: read-out: Drug uptake
[14] = Ratio of drug concentration in Epithelial lining fluid of healthy human at 400 mg, po administered as single dose after 24 hrs to drug concentration in Epithelial lining fluid of healthy human at 500 mg, po administered as single dose after 24 hrs; format: ADME, organism-based; details: in vivo
[15] = Ratio of drug concentration in Alveolar macrophage of healthy human at 400 mg, po administered as single dose after 24 hrs to drug concentration in Alveolar macrophage of healthy human at 500 mg, po administered as single dose after 24 hrs; format: ADME, organism-based; details: in vivo
Homo sapiens [16] = assay: Toxicity in healthy human assessed as occurrence of mortality at 400 mg administered once on day 1 followed by 200 mg once daily for 2 days during 3 days of treatment; format: organism-based; details: in vivo
Homo sapiens [17] = assay: Toxicity in healthy human assessed as incidence of severe adverse events at 200 mg, po once daily for 3 days; format: organism-based; details: in vivo, 72 h
Homo sapiens [18] = assay: Toxicity in healthy human in 8 hrs fasted healthy human assessed as incidence of severe adverse events at 200 mg, po administered as single dose of suspension; format: organism-based; details: in vivo
Homo sapiens [19] = assay: Toxicity in high-fat fed healthy human assessed as incidence of severe adverse events at 200 mg, po administered as single dose of two-100 mg capsules; format: organism-based; details: in vivo
Homo sapiens [20] = assay: Toxicity in healthy human in 8 hrs fasted healthy human assessed as changes in liver functions at 200 mg, po administered as single dose of suspension; format: organism-based; details: in vivo
Homo sapiens [21] = assay: Toxicity in healthy human in 8 hrs fasted healthy human assessed as changes in liver functions at 200 mg, po administered as single dose of two-100 mg capsules; format: organism-based; details: in vivo
Homo sapiens [22] = assay: Toxicity in high-fat fed healthy human assessed as changes in liver functions at 200 mg, po administered as single dose of two-100 mg capsules; format: organism-based; details: in vivo
Homo sapiens [23] = assay: Toxicity in healthy human in 8 hrs fasted healthy human assessed as changes in ECG at 200 mg, po administered as single dose of suspension; format: organism-based; details: in vivo
Homo sapiens [24] = assay: Toxicity in high-fat fed healthy human assessed as changes in ECG at 200 mg, po administered as single dose of two-100 mg capsules; format: organism-based; details: in vivo
Homo sapiens [25] = assay: Toxicity in healthy human in 8 hrs fasted healthy human assessed as changes in physical examinations at 200 mg, po administered as single dose of suspension; format: organism-based; details: in vivo
[26] = AUC (0 to last) in healthy human plasma at 200 mg, po once daily for 3 days measured after 1 day; format: ADME, organism-based; design: dose 200 mg, time 0 - last, route oral
[27] = AUC (0 to last) in healthy human plasma at 200 mg, po once daily for 3 days measured after 3 days; format: ADME, organism-based; design: dose 200 mg, route oral, time 0 - last
Homo sapiens [28] = assay: Ratio of AUC (0 to 24 hrs) in healthy human plasma at 200 mg, po once daily for 3 days measured on day 3 to AUC (0 to 24 hrs) in healthy human plasma at 200 mg, po once daily for 3 days measured on day 1; format: ADME, organism-based; details: in vivo
[29] = Cmax in healthy human plasma at 400 mg administered once on day 1 followed by 200 mg once daily for 2 days during 3 days of treatment measured after 3 days; format: ADME, organism-based; design: dose 400 mg
[30] = AUC (0 to last) in healthy human plasma at 400 mg administered once on day 1 followed by 200 mg once daily for 2 days during 3 days of treatment measured after 3 days; format: ADME, organism-based; design: dose 400 mg, time 0 - last
[31] = AUC (0 to infinity) in healthy human plasma at 400 mg administered once on day 1 followed by 200 mg once daily for 2 days during 3 days of treatment measured after 3 days; format: ADME, organism-based; design: dose 400 mg, time infinity
Homo sapiens [32] = assay: Ratio of AUC (0 to 24 hrs) in healthy human plasma at loading dose of 400 mg/day, po once daily measured on 1 day to AUC (0 to 24 hrs) in healthy human plasma at 400 mg administered once on day 1 followed by 200 mg once daily for 2 days during 3 days of treatment measured on day 3; format: ADME, organism-based; details: in vivo
[33] = Half life in healthy human plasma at 400 mg administered once on day 1 followed by 200 mg once daily for 2 days during 3 days of treatment measured after 3 days; format: ADME, organism-based
[34] = Cmax in 8 hrs fasted healthy human plasma at 200 mg, po administered as single dose of suspension; format: ADME, organism-based; design: dose 200 mg, route oral
[35] = Cmax in high-fat fed healthy human plasma at 200 mg, po administered as single dose of two-100 mg capsules; format: ADME, organism-based; design: dose 200 mg, route oral

Q: For `CC[C@H]1OC(=O)[C@H](C)C(=O)[C@H](C)[C@@H](O[C@@H]2O[C@H](C)C[C@H](N(C)C)[C@H]2O)[C@@]2(C)C[C@@H](C)/C(=N\C(C)=O)[C@H](C)[C@@H](OC/C(=N\OCc3ccc(-n4cccn4)nc3)CO2)[C@]1(C)O` [MODITHROMYCIN], which Tmax [1] is on record?
A: 3.5 h

Q: And the Tmax [2]?
A: 4 h

Q: What about the AUC(0-t) [3] of the same molecule?
A: 8940 ng·h/mL

Q: What about the half-life [4] of the same molecule?
A: 1010 min

Q: And the half-life [5]?
A: 1010 min

Q: And the Ratio (Homo sapiens [6])?
A: 0.058

Q: What about the Ratio (Homo sapiens [7]) of the same molecule?
A: 0.092

Q: What about the Ratio (Homo sapiens [8]) of the same molecule?
A: 0.101

Q: And the Ratio (Homo sapiens [9])?
A: 0.093

Q: And the Ratio (Homo sapiens [10])?
A: 0.147

Q: And the AUC [11]?
A: 2560 µg·h/mL

Q: And the Kp [12]?
A: 20.3

Q: What about the concentration at 24 h [13] of the same molecule?
A: 6500 ng/mL

Q: What about the Ratio [14] of the same molecule?
A: > 72

Q: What about the Ratio [15] of the same molecule?
A: > 2

Q: And the Activity (Homo sapiens [16])?
A: Non-toxic

Q: What about the Activity (Homo sapiens [17]) of the same molecule?
A: Non-toxic

Q: And the Activity (Homo sapiens [18])?
A: Non-toxic

Q: And the Activity (Homo sapiens [19])?
A: Non-toxic

Q: What about the Activity (Homo sapiens [20]) of the same molecule?
A: Non-toxic

Q: What about the Activity (Homo sapiens [21]) of the same molecule?
A: Non-toxic

Q: What about the Activity (Homo sapiens [22]) of the same molecule?
A: Non-toxic

Q: What about the Activity (Homo sapiens [23]) of the same molecule?
A: Non-toxic

Q: And the Activity (Homo sapiens [24])?
A: Non-toxic

Q: What about the Activity (Homo sapiens [25]) of the same molecule?
A: Non-toxic

Q: What about the AUC(0-t) at 24 h [26] of the same molecule?
A: 6200 ng·h/mL

Q: What about the AUC(0-t) at 72 h [27] of the same molecule?
A: 16400 ng·h/mL

Q: And the “Ratio AUC” value (Homo sapiens [28])?
A: 1.41

Q: What about the Cmax [29] of the same molecule?
A: 514 ng/mL

Q: And the AUC(0-t) [30]?
A: 15000 ng·h/mL

Q: What about the AUC(0-inf) [31] of the same molecule?
A: 15100 ng·h/mL

Q: What about the “Ratio AUC” value (Homo sapiens [32]) of the same molecule?
A: 0.99

Q: What about the half-life [33] of the same molecule?
A: 1060 min

Q: What about the Cmax [34] of the same molecule?
A: 381 ng/mL

Q: And the Cmax [35]?
A: 394 ng/mL
